ChEMBL document CHEMBL1123008, “Synthesis and antinociceptive activity of 4-(cyclopropylmethyl)-3,4,5,6-tetrahydro-2H-1,5-methano-1, 4-benzodiazocin-9-amine and congeners” (1985)

Key:
Assay type in all cases: functional
Rattus norvegicus [1] = assay: In vivo narcotic antagonist activity by rat phenazocine antagonism test through subcutaneous administration
Rattus norvegicus [2] = assay: In vivo narcotic antagonist activity in rat after subcutaneous administration at 60 mg/kg & lethal at 120 mg/kg
Mus musculus [3] = assay: Analgesic agonist activity by mouse acetylcholine writhing test through subcutaneous administration; details: sc
Mus musculus [4] = assay: Maximum analgesic agonist activity obtained by mouse acetylcholine writhing test through subcutaneous administration at 75 mg/kg; details: sc
Rattus norvegicus [5] = assay: In vivo narcotic antagonist activity in rat after subcutaneous administration at 80 mg/kg; details: sc
Rattus norvegicus [6] = assay: In vivo narcotic antagonist activity by AD50 vs. morphine through oral administration
Rattus norvegicus [7] = assay: In vivo narcotic antagonist activity by AD50 vs. morphine through subcutaneous administration
Rattus norvegicus [8] = assay: In vivo narcotic antagonist activity by AD50 vs. meperidine through oral administration
Rattus norvegicus [9] = assay: In vivo narcotic antagonist activity by AD50 vs. meperidine through subcutaneous administration
Rattus norvegicus [10] = assay: In vivo narcotic antagonist activity in rat after oral administration of the compound
Rattus norvegicus [11] = assay: In vivo narcotic antagonist activity by rat phenylquinone test through oral administration
Rattus norvegicus [12] = assay: Analgesic agonist activity by rat tail-flick test through oral administration; Inactive at 200 mg/kg
Rattus norvegicus [13] = assay: Analgesic agonist activity by rat tail-flick test through subcutaneous administration; Inactive at 120 mg/kg; details: sc
Rattus norvegicus [14] = assay: In vivo narcotic antagonist activity by rat phenylquinone test through subcutaneous administration; details: sc
Rattus norvegicus [15] = assay: In vivo narcotic antagonist activity in rat after subcutaneous administration of the compound
Rattus norvegicus [16] = species: Rattus norvegicus; assay: animal or person; details: in Mus musculus, sc
Rattus norvegicus [17] = assay: In vivo narcotic antagonist activity by rat phenazocine antagonism test through subcutaneous administration at 10 mg/kg
Rattus norvegicus [18] = assay: In vivo narcotic antagonist activity in rat after subcutaneous administration at 10 mg/kg & convulsions at 20 mg/kg; details: sc
Rattus norvegicus [19] = assay: In vivo narcotic antagonist activity by rat phenazocine antagonism test through oral administration
Rattus norvegicus [20] = assay: Analgesic agonist activity by rat intracarotid bradykinin writhing test through subcutaneous administration; details: sc

SMILES: CCNc1ccc2c(c1)N1CCN(CC3CC3)C(C2)C1.Cl (stereo not given)
- AD50 (Rattus norvegicus [1]): 4.4 mg/kg
- Inhibition (Rattus norvegicus [2]): 17%

SMILES: Nc1ccc2c(c1)N1CCN(CC3CC3)[C@@H](C2)C1
- ED50 (Mus musculus [3]): 40 mg/kg
- inhibition in vivo at 75 mg/kg (Mus musculus [4]): 67%
- inhibition in vivo at 80 mg/kg (Rattus norvegicus [5]): 25%

SMILES: Nc1ccc2c(c1)N1CCN(CC3CC3)C(C2)C1 (stereo not given)
- AD50 (Rattus norvegicus [6]): 13 mg/kg
- AD50 (Rattus norvegicus [7]): 8.6 mg/kg
- AD50 (Rattus norvegicus [8]): 4.8 mg/kg
- AD50 (Rattus norvegicus [9]): 3.3 mg/kg
- AD50 (Rattus norvegicus [1]): 1.6 mg/kg
- AD50 (Rattus norvegicus [10]): 3.5 mg/kg
- ED50 (Rattus norvegicus [11]): 5.7 mg/kg
- ED50 (Rattus norvegicus [12]): 1 mg/kg
- ED50 (Rattus norvegicus [13]): 1 mg/kg
- ED50 (Rattus norvegicus [14]): 1.8 mg/kg

SMILES: C=CCN1CCN2CC1Cc1ccc(N)cc12.CCS(=O)(=O)O (stereo not given)
- AD50 (Rattus norvegicus [15]): 1.6 mg/kg

SMILES: CCS(=O)(=O)O.c1ccc2c(c1)CC1CN2CCN1CC1CC1 (stereo not given)
- AD50 (Rattus norvegicus [15]): 34 mg/kg
- ED50 (Rattus norvegicus [13]): 1 mg/kg

SMILES: CN1CC[C@]23c4c5ccc(O)c4O[C@H]2[C@@H](O)C=C[C@H]3[C@H]1C5.CN1CC[C@]23c4c5ccc(O)c4O[C@H]2[C@@H](O)C=C[C@H]3[C@H]1C5.O=S(=O)(O)O
- ED50 (Rattus norvegicus [16]): 0.21 mg/kg

SMILES: CCCCNc1ccc2c(c1)N1CCN(CC3CC3)C(C2)C1 (stereo not given)
- AD50 (Rattus norvegicus [17]): 1 mg/kg
- ED50 (Rattus norvegicus [18]): 1 mg/kg

SMILES: Oc1ccc2c(c1)N1CCN(CC3CC3)C(C2)C1 (stereo not given)
- ED50 (Mus musculus [3]): 10 mg/kg
- AD50 (Rattus norvegicus [19]): 3.2 mg/kg
- AD50 (Rattus norvegicus [1]): 0.02 mg/kg
- ED50 (Rattus norvegicus [20]): 37 mg/kg

SMILES: Nc1ccc2c(c1)N1CCN(CC3CC3)[C@H](C2)C1
- ED50 (Mus musculus [3]): 1 mg/kg
- AD50 (Rattus norvegicus [15]): 0.31 mg/kg

SMILES: C=CCN1CC[C@]23c4c5ccc(O)c4O[C@H]2[C@@H](O)C=C[C@H]3[C@H]1C5.Cl [NALORPHINE HYDROCHLORIDE]
- AD50 (Rattus norvegicus [15]): 0.032 mg/kg
- ED50 (Rattus norvegicus [16]): 2.8 mg/kg
- ED50 (Rattus norvegicus [20]): 0.24 mg/kg
